# Reference: US20240050513A1, “COMPOSITION FOR PREVENTING, AMELIORATING, OR TREATING DISEASE CAUSED BY PROTEIN NITRATION […] WITH TERMINAL TYROSINE AS EFFECTIVE COMPONENT” (INDUSTRY-ACADEMIC COOPERATION FOUNDATION GYEONGSANG …, priority 2021, published 2024)
# Where two headings read alike, the source gives them in different places.
# How the values were obtained:
# [1] = system: glutamine synthetase (GS); experiment: Hippocampal glutamine synthetase activity in kainic acid epileptic seizure model
# Method: Kainic acid (KA) was dissolved in saline by heating in a water bath, resulting in a 4.5 mg/ml KA solution. The resulting KA solution was then intraperitoneally injected at a dose of 36 mg/kg, and seizure level and symptoms were recorded for 2 hours. The brain tissues (prefrontal cortex and hippocampus) of the mice that survived 16 hours or 5 days after the KA injection were collected.
# To a 96-well plate, 2 μl of hippocampal homogenate was added, and 50 μl of 50 mM imidazole-HCl buffer (pH 6.8) were added to adjust the volume to 50 μl. Then, 50 μl of GS assay buffer (50 mM imidazole-HCl, pH 6.8, 25 mM L-glutamine, 12.5 mM hydroxylamine, 12.5 mM sodium arsenate, 1 mM MnCl2, and 0.08 mM ADP) were added and the reaction was allowed to occur at 37° C. for approximately 40 minutes. […] To terminate the reaction, 100 μl of stop solution (90 mM FeCl3, 1.8 N HCl, and 1.45% w/v trichloroacetic acid) were added to both the samples and the standard substance, and the absorbance was measured at 560 nm. The GS activity in each sample was determined by comparing it with the standard curve. GS activity was expressed as the generation amount of γ-glutamylhydroxamate, which is produced as a final product, and described in unit of μM/min/μg protein.
# [2] = system: high-fat diet C57BL/6 mice
# Method: Three-week-old male C57BL/6 mice were purchased from Koatech and housed in the animal facility under controlled conditions of temperature (22±2° C.), humidity (50±5%), and a 12-hour light-dark cycle. Two mice were housed per a cage. […] The mice were maintained on their respective diets for a duration of 17 weeks.
# With an interval of one week, the body weight and food intake of each animal were measured. Additionally, at 1, 5, or 8 weeks after the start of the experiment, fasting blood glucose level was measured using an Accu-Check glucose meter.
# At 15 weeks after the start of the test, a glucose tolerance test (GTT) was performed, and at 16 weeks, an insulin tolerance test (ITT) was carried out. For the
# GTT, after a 12-hour fasting period, a glucose solution of 2 g/kg was administered through intraperitoneal injection, and blood samples were collected from the vein at 0, 20, 60, 90, and 120 minutes to measure blood glucose level. For the ITT, after a 6-hour fasting period, insulin at a dose of 0.75 U/kg was administered through intraperitoneal injection, and blood samples were collected from the vein at 0, 15, 30, 60, and 120 minutes to measure blood glucose level.
# The urine volume (ml) was measured by collecting urine from the metabolic cages over a 16-hour period, and the fat mass was measured for each mouse using the EchoMRITM device and expressed as a percentage (%) of body weight.
# The insulin concentration was measured using an ELISA kit (Crystal Chem, Ultra-Sensitive Mouse Insulin ELISA Kit), and the alanine aminotransferase (ALT) concentration was measured using an assay kit (IVD Lab Co., ChemiLab GPT (ALT) assay kit). Additionally, the concentration of reactive oxygen species/reactive nitrogen species (ROS/RNS) was measured by using an assay kit (Cell Biolabs, Inc., OxiSelect™ In Vitro ROS/RNS Assay Kit).
# After anesthesia, liver tissues were dissected and rapidly frozen in liquid nitrogen. Some tissues were fixed in 10% formalin, and 5 μm-thick tissue slides were prepared from paraffin blocks. The tissues were then stained with H&E (hematoxylin and eosin) and observed under a microscope (Olympus, CKX41) for imaging.
# A decrease in insulin receptor in muscles in metabolic disorders reduces the sensitivity to insulin signal, thus limiting the ability to utilize glucose in the muscles to cause sarcopenia. The liver tissue was homogenized in RIPA buffer, and protein quantification was performed using the BCA method. Western blot analysis was then conducted using an anti-insulin receptor-beta (IRβ) antibody.
# It is known that a decrease in renal function leads to an increase in the concentration of albumin and a decrease in creatinine in urine. Therefore, the albumin and creatinine levels in urine were measured using mouse albumin ELISA kit (Abcam) and creatinine assay kit (Abcam), respectively, in each test animal. The albumin/creatinine ratio was then calculated. Additionally, 10 μL of blood plasma or 40 mg of homogenized liver tissue were subjected to centrifugation at 10,000 g for 10 minutes, and the supernatant was separated to measure the triglycerides (TG) level in plasma or liver by using a triglyceride measurement kit (Cayman).
substance,measurement,setting,value
tyrosine-glutamine [YQ],activity of glutamine synthetase,"[1]; kainic acid-treated animals, YQ i.p vs normal diet",statistically significantly increased
same,activity of the glutamine synthetase in the hippocampal tissue,"[1]; survived mice after kainic acid, 3xYQ",increased
same,fasting blood glucose level,"[2]; HFD+1xYQ vs HFD, 1, 5 or 8 weeks",decrease in blood glucose level
same,body weight,[2]; HFD+3xYQ vs HFD,lower body weight
same,fat mass,[2]; HFD+3xYQ vs HFD,decrease
same,fasting blood glucose level,"[2]; HFD+3xYQ vs HFD, 1, 5 or 8 weeks",decrease in blood glucose level
same,"blood glucose level, glucose tolerance test (GTT)","[2]; HFD+3xYQ vs HFD, 15 weeks",decrease in blood glucose level
same,urine volume,"[2]; HFD+3xYQ vs HFD, 16-hour collection",decrease
same,"blood glucose level, insulin tolerance test (ITT)","[2]; HFD+3xYQ vs HFD, 16 weeks",decrease in blood glucose level
same,expression level of IRβ,"[2]; liver tissue, Western blot, HFD+3xYQ vs HFD",increase
